Measured values as given in PubChem BioAssay (NCI).
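Method: 48-hour compound exposure of cells in 96-well plates, five concentrations, linear interpolation of endpoints. GI50: concentration for 50% inhibition of growth. TGI: concentration producing complete growth inhibition.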

Legend:
Assay in all cases: inhibition of tumour cell growth, NCI panel, 48 h
A549 NSCLC = system: A549 NSCLC
MOLT-4 leukemia = system: MOLT-4 leukemia
HT29 colon = system: HT29 colon
NCI/ADR-RES ovarian = system: NCI/ADR-RES ovarian
UACC-257 melanoma = system: UACC-257 melanoma
SK-OV-3 ovarian = system: SK-OV-3 ovarian
SW-620 colon = system: SW-620 colon
MCF7 breast = system: MCF7 breast
UO-31 renal = system: UO-31 renal
T-47D breast = system: T-47D breast
HCC-2998 colon = system: HCC-2998 colon
COLO 205 colon = system: COLO 205 colon
HL-60(TB) leukemia = system: HL-60(TB) leukemia
NCI-H460 lung = system: NCI-H460 lung
RPMI-8226 leukemia = system: RPMI-8226 leukemia
SK-MEL-5 melanoma = system: SK-MEL-5 melanoma
KM12 colon = system: KM12 colon
A498 renal = system: A498 renal
U251 CNS = system: U251 CNS
EKVX NSCLC = system: EKVX NSCLC
UACC-62 melanoma = system: UACC-62 melanoma
SNB-19 CNS = system: SNB-19 CNS
OVCAR-8 ovarian = system: OVCAR-8 ovarian
NCI-H23 lung = system: NCI-H23 lung
CCRF-CEM leukemia = system: CCRF-CEM leukemia
HCT-116 colon = system: HCT-116 colon
HCT-15 colon = system: HCT-15 colon
SK-MEL-2 melanoma = system: SK-MEL-2 melanoma
IGROV1 ovarian = system: IGROV1 ovarian
SK-MEL-28 melanoma = system: SK-MEL-28 melanoma
NCI-H522 lung = system: NCI-H522 lung
OVCAR-4 ovarian = system: OVCAR-4 ovarian
M14 melanoma = system: M14 melanoma
CAKI-1 renal = system: CAKI-1 renal
TK-10 renal = system: TK-10 renal
LOX IMVI melanoma = system: LOX IMVI melanoma
ACHN renal = system: ACHN renal
OVCAR-3 ovarian = system: OVCAR-3 ovarian
MDA-MB-435 = system: MDA-MB-435
DU-145 prostate = system: DU-145 prostate
SF-268 CNS = system: SF-268 CNS
786-0 renal = system: 786-0 renal
OVCAR-5 ovarian = system: OVCAR-5 ovarian
SF-539 CNS = system: SF-539 CNS
MDA-MB-231 breast = system: MDA-MB-231 breast
RXF 393 renal = system: RXF 393 renal
K-562 leukemia = system: K-562 leukemia
NCI-H226 lung = system: NCI-H226 lung
MALME-3M melanoma = system: MALME-3M melanoma
SNB-75 CNS = system: SNB-75 CNS
HOP-62 NSCLC = system: HOP-62 NSCLC
SF-295 CNS = system: SF-295 CNS
PC-3 prostate = system: PC-3 prostate
HS 578T breast = system: HS 578T breast
SN12C renal = system: SN12C renal
BT-549 breast = system: BT-549 breast

NS(=O)(=O)N(c1cc(C(F)(F)F)cc(C(F)(F)F)c1)C1CCN(Cc2ccc(C(F)(F)F)cc2)CC1
GI50 (A549 NSCLC): 7.35 µM
TGI (A549 NSCLC): 15.6 µM
GI50 (MOLT-4 leukemia): 3.77 µM
TGI (MOLT-4 leukemia): 15.9 µM
GI50 (HT29 colon): 2.89 µM
TGI (HT29 colon): 10.2 µM
GI50 (NCI/ADR-RES ovarian): 6.82 µM
TGI (NCI/ADR-RES ovarian): 13.3 µM
GI50 (UACC-257 melanoma): 7.54 µM
TGI (UACC-257 melanoma): 15 µM
GI50 (SK-OV-3 ovarian): 9.26 µM
TGI (SK-OV-3 ovarian): 22.2 µM
GI50 (SW-620 colon): 6.77 µM
TGI (SW-620 colon): 15.4 µM
GI50 (MCF7 breast): 6.09 µM
TGI (MCF7 breast): 12.3 µM
GI50 (UO-31 renal): 3.17 µM
TGI (UO-31 renal): 9.87 µM
GI50 (T-47D breast): 5.61 µM
TGI (T-47D breast): 11.9 µM
GI50 (HCC-2998 colon): 6.9 µM
TGI (HCC-2998 colon): 13.4 µM
GI50 (COLO 205 colon): 7.86 µM
TGI (COLO 205 colon): 14.6 µM
GI50 (HL-60(TB) leukemia): 1.63 µM
TGI (HL-60(TB) leukemia): 7.84 µM
GI50 (NCI-H460 lung): 7.49 µM
TGI (NCI-H460 lung): 16.4 µM
GI50 (RPMI-8226 leukemia): 6.88 µM
TGI (RPMI-8226 leukemia): 20.3 µM
GI50 (SK-MEL-5 melanoma): 7.63 µM
TGI (SK-MEL-5 melanoma): 14.7 µM
GI50 (KM12 colon): 6.81 µM
TGI (KM12 colon): 14.9 µM
GI50 (A498 renal): 5.61 µM
TGI (A498 renal): 12 µM
GI50 (U251 CNS): 5.92 µM
TGI (U251 CNS): 12.7 µM
GI50 (EKVX NSCLC): 7.18 µM
TGI (EKVX NSCLC): 15.2 µM
GI50 (UACC-62 melanoma): 7.14 µM
TGI (UACC-62 melanoma): 16.3 µM
GI50 (SNB-19 CNS): 9.39 µM
TGI (SNB-19 CNS): 20.2 µM
GI50 (OVCAR-8 ovarian): 8.35 µM
TGI (OVCAR-8 ovarian): 17.4 µM
GI50 (NCI-H23 lung): 6.88 µM
TGI (NCI-H23 lung): 14 µM
GI50 (CCRF-CEM leukemia): 8.98 µM
TGI (CCRF-CEM leukemia): 24.2 µM
GI50 (HCT-116 colon): 5.41 µM
TGI (HCT-116 colon): 11.4 µM
GI50 (HCT-15 colon): 5.88 µM
TGI (HCT-15 colon): 12.5 µM
GI50 (SK-MEL-2 melanoma): 9.91 µM
TGI (SK-MEL-2 melanoma): 18.3 µM
GI50 (IGROV1 ovarian): 5.56 µM
TGI (IGROV1 ovarian): 11.6 µM
GI50 (SK-MEL-28 melanoma): 8.5 µM
TGI (SK-MEL-28 melanoma): 17.7 µM
GI50 (NCI-H522 lung): 6.42 µM
TGI (NCI-H522 lung): 13.2 µM
GI50 (OVCAR-4 ovarian): 6.89 µM
TGI (OVCAR-4 ovarian): 14.5 µM
GI50 (M14 melanoma): 7.57 µM
TGI (M14 melanoma): 14.5 µM
GI50 (CAKI-1 renal): 5.04 µM
TGI (CAKI-1 renal): 11.1 µM
GI50 (TK-10 renal): 7.03 µM
TGI (TK-10 renal): 14.5 µM
GI50 (LOX IMVI melanoma): 7.43 µM
TGI (LOX IMVI melanoma): 14 µM
GI50 (ACHN renal): 7.92 µM
TGI (ACHN renal): 14.6 µM
GI50 (OVCAR-3 ovarian): 6.23 µM
TGI (OVCAR-3 ovarian): 12.6 µM
GI50 (MDA-MB-435): 7.04 µM
TGI (MDA-MB-435): 13.6 µM
GI50 (DU-145 prostate): 7.87 µM
TGI (DU-145 prostate): 15.4 µM
GI50 (SF-268 CNS): 7.55 µM
TGI (SF-268 CNS): 17.9 µM
GI50 (786-0 renal): 7.47 µM
TGI (786-0 renal): 14.1 µM
GI50 (OVCAR-5 ovarian): 7.88 µM
TGI (OVCAR-5 ovarian): 16 µM
GI50 (SF-539 CNS): 7.8 µM
TGI (SF-539 CNS): 15.3 µM
GI50 (MDA-MB-231 breast): 9.65 µM
TGI (MDA-MB-231 breast): 20.8 µM
GI50 (RXF 393 renal): 5.89 µM
TGI (RXF 393 renal): 12.2 µM
GI50 (K-562 leukemia): 0.409 µM
TGI (K-562 leukemia): 10.3 µM
GI50 (NCI-H226 lung): 7.9 µM
TGI (NCI-H226 lung): 15.5 µM
GI50 (MALME-3M melanoma): 7.47 µM
TGI (MALME-3M melanoma): 14.2 µM
GI50 (SNB-75 CNS): 2.86 µM
TGI (SNB-75 CNS): 13 µM
GI50 (HOP-62 NSCLC): 7.94 µM
TGI (HOP-62 NSCLC): 15 µM
GI50 (SF-295 CNS): 6.82 µM
TGI (SF-295 CNS): 13.5 µM
GI50 (PC-3 prostate): 4.56 µM
TGI (PC-3 prostate): 12.5 µM
GI50 (HS 578T breast): 6.34 µM
TGI (HS 578T breast): 22.9 µM
GI50 (SN12C renal): 6.86 µM
TGI (SN12C renal): 13.7 µM
GI50 (BT-549 breast): 7.99 µM
TGI (BT-549 breast): 14.7 µM
